The nature of data set [1]: DLS detection of grain size, PDI and zeta potential of vesicles. Particulars: for PDI / d(nm) / zeta potential (mV): vesicles of the derivative, depolymerization and assembly repeated three times; for grain size of the vesicles: vesicles assembled once, pH below 7.2, FIG. 5. The format is physicochemical. The method, then:
• ① In this test example, the grain sizes of vesicle compounds formed by three compounds, LA-PEG2-BPA, LA-PEG4-BPA, and LA-PEG4-3-BPA, were detected.
Preparation of the vesicle nanoparticles to be detected for grain size in this test example includes: An appropriate amount of the corresponding compound was weighed and placed into a sample vial, double-distilled water was added, an appropriate amount of NaOH aqueous solution was added to adjust the pH to between 10 and 11 until the starting material was completely dissolved, followed by addition of an appropriate amount of hydrochloric acid to adjust the pH to below 7.2, thereby completing vesicle assembly.
② The lipoic acid derivatives were separately assembled into vesicles, including LA-PEG1-BPA (denoted as L^pB-1), LA-PEG2-BPA (denoted as L^pB-2), LA-PEG4-BPA (denoted as L^pB-3), LA-PEG8-BPA (denoted as L^pB-4), LA-PEG1-3-BPA (denoted as L^mB-1), LA-PEG2-3-BPA (denoted as L^mB-2), LA-PEG4-3-BPA (denoted as L^mB-3), and LA-PEG8-3-BPA (denoted as L^mB-4); the vesicle assembly method in this test example was based on the preparation method of the vesicle examples and depolymerization and assembly were repeatedly three times; the physicochemical properties of the self-assembled vesicles were detected, and the grain size, polymer dispersancy index (PDI), and zeta potential of the vesicles were detected using DLS (dynamic light scattering) technology. Table 1 […]

Data set [2] can be described thus: Critical aggregation concentration by Nile Red fluorescence. It is filed as physicochemical. The following applies: Nile Red 1.0 µM, distilled water. The method, then: A mixture of Nile Red (at a concentration of 1.0 µM) and the corresponding BPA lipoic acid derivative (at a concentration of 0-20 mM) in distilled water was oscillated overnight under constant temperature conditions. The fluorescence emission intensity of Nile Red at 525 nm wavelength (λex = 485 nm) was measured using a FluoroMax-4 fluorometer. The critical aggregation concentration of the BPA lipoic acid derivative in aqueous medium was calculated from the intersection point of two linear regression equations.
The critical aggregation concentration (CAC) refers to the minimum concentration at which a substance forms aggregates in an aqueous solution. When the concentration of a surfactant or colloidal particle in an aqueous solution exceeds the critical aggregation concentration, they begin to self-assemble into aggregates due to intermolecular attractive forces. This process is referred to as aggregation or self-assembly.

Consider `O=C(CCCCC1CCSS1)NCCOCCC(=O)NC(Cc1cccc(B(O)O)c1)C(=O)O` (stereo not drawn) [L^mB-1], for which, in data set [1], the PDI amounted to 0.132, the “d(nm)” value was 105.3 nm and the “zeta potential (mV)” value is on record as -30.7 mV. Moreover, the “CAC” value in data set [2] is 256 µM.
For the compound `O=C(CCCCC1CCSS1)NCCOCCOCCC(=O)NC(Cc1cccc(B(O)O)c1)C(=O)O` (stereo not drawn) [L^mB-2], in data set [1], the PDI is recorded as 0.102, the “d(nm)” value was found to be 149.1 nm and the “zeta potential (mV)” value is listed as -28.61 mV. For the same compound, in data set [2], the “CAC” value came out at 254 µM.
As to `O=C(CCCCC1CCSS1)NCCOCCOCCOCCOCCC(=O)NC(Cc1cccc(B(O)O)c1)C(=O)O` (stereo not drawn) [L^mB-3], in data set [1], the “grain size of the vesicles” value is given as “approximately 114 nm”, the PDI is reported as 0.209, the “d(nm)” value is given as 165.7 nm and the “zeta potential (mV)” value was -35.20 mV. The “CAC” value in data set [2] turned out to be 274 µM.
As to `O=C(CCCCC1CCSS1)NCCOCCOCCOCCOCCOCCOCCOCCOCCC(=O)NC(Cc1cccc(B(O)O)c1)C(=O)O` (stereo not drawn) [L^mB-4], in data set [1], the PDI worked out at 0.237, the “d(nm)” value is listed as 284.6 nm and the “zeta potential (mV)” value is on record as -35.2 mV. The “CAC” value in data set [2] turned out to be 280 µM.
In the same order, the values of `O=C(CCCCC1CCSS1)NCCOCCC(=O)NC(Cc1ccc(B(O)O)cc1)C(=O)O` (stereo not drawn) [L^pB-1] are 0.107, 98.9 nm, -32.5 mV and 243 µM.
In the case of `O=C(CCCCC1CCSS1)NCCOCCOCCC(=O)NC(Cc1ccc(B(O)O)cc1)C(=O)O` (stereo not drawn) [L^pB-2], in data set [1], the “grain size of the vesicles” value was “approximately 244 nm”, the PDI amounted to 0.015, the “d(nm)” value was 144.7 nm and the “zeta potential (mV)” value is recorded as -30.9 mV. Besides, the “CAC” value in data set [2] turned out to be 248 µM.
As to `O=C(CCCCC1CCSS1)NCCOCCOCCOCCOCCOCCOCCOCCOCCC(=O)NC(Cc1ccc(B(O)O)cc1)C(=O)O` (stereo not drawn) [L^pB-4], in data set [1], the PDI is given as 0.217, the “d(nm)” value was 268.4 nm and the “zeta potential (mV)” value was -29.35 mV. In addition, the “CAC” value in data set [2] came to 277 µM.

Source of the values: patent publication EP4772503A1, “LIPOIC ACID DERIVATIVE, VESICLE COMPOUND AND PREPARATION THEREFOR AND USE THEREOF” (Neuboron Medtech Research Institute Ltd., priority 2023, dated 2025).
